Assay results reported in US20250017938A1, “COMBINATION THERAPIES OF FASN INHIBITORS WITH THYROID HORMONE RECEPTOR AGONISTS” (Sagimet Biosciences Inc., priority 2023, published 2025).
“Also recorded” adds a separate entry of the source.

Assays:
Assay type in all cases: cell-based
[1] = system: primary isolated human stellate cells (HSC); assay: Primary human hepatic stellate cells stimulated with TGF-β1, total collagen (in vitro fibrosis study)
Protocol: Primary isolated human stellate cells (HSC) were investigated in the study. The cells were maintained under standard culture conditions and in established culture medium.
Study Model: Viability screening and in vitro fibrosis study, 24 well plate format, 4 day stimulation with recombinant human TGF-β1. In this study, 2.5 and 10 ng/ml TGF-β1 were used.
Primary HSCs were seeded on t=day-1 and cultured in 24 well plates for 24 hours. […] Cells were incubated for an additional 96 hours (t=day 4). Conditioned medium samples were collected for expression analysis of secreted proteins. All wells were used for an alamarBlue assay to assess cell viability/metabolic activity. A separate plate was used at t=day 0 as reference for the alamarBlue assay. Next, the cell-matrix fraction was collected for measurement of total collagen and cell protein levels.
Both test compounds were dissolved in DMSO. Working concentrations were prepared from a stock concentration that is 1000-fold that of the highest working concentration. All controls were incubated with the same DMSO concentration as that present in the highest working concentration.
Total Collagen assay was performed according to the manufacturer's protocol.
Total Protein assay, for use with the Total Collagen assay, was performed according to the manufacturer's protocol. Protein levels were used to correct for differences in cell contents between samples.
Significance of differences between the groups was calculated either parametrically or non-parametrically, using the computer program SPSS. For nonparametric calculations, a Kruskal-Wallis test for several independent samples was used, followed by a Mann-Whitney U-test for independent samples. For parametric calculations, a One-way ANOVA for multiple comparisons was used, followed by Dunnett or Bonferroni's correction.

[2] = system: 3D InSight Human Liver Microtissues (NASH condition); assay: 3D InSight Liver NASH model, intratissue triglyceride content (10 days)
Protocol: […]. InSphero's 10-day NASH treatment scheme was applied with compound dosing at days 0, 3, 5 and 7 of treatment. […]. At day 5 of treatment, secreted cytokine levels were measured (LUMINEX™), at days 7 and 10 released procollagen 1 was quantified and at day 10 of treatment intratissue triglyceride content was determined. The release of lactate dehydrogenase (LDH) into culture supernatant was measured at days 3, 5, 7 and 10, in order to detect possible cytotoxicity caused by the treatments. After first data evaluation, released procollagen 3 was measured in supernatants of selected day 10 samples. […]
Cells were dosed on days 0, 3, 5 and […]. Experimental readout measurements comprised collection and freezing of supernatants for LDH measurement on days 3, 5, 7 and 10. Measurement of LDH released into supernatant was analyzed using an LDH-Glo™ Cytotoxicity
Assay (Promega). Measurement of intratissue triglyceride (TG) content after 10 days of treatment was analyzed using a Triglyceride-Glo™ Assay (Promega). […] Measurement of IL-6, IL-8, IP-10, MCP-1, MIP-1α and TNF-α content was analyzed using Magnetic Luminex® Performance Assay, Human XL Cytokine Discovery Base Kit (R&D systems).
. Total TG content in MTs at day 10 of treatment was measured with Triglyceride-Glo™ Assay (Promega), according to InSphero AG protocol. […]

[3] = system: 3D InSight Human Liver Microtissues; assay: 3D InSight Human Liver Microtissues, DNL condition, intratissue triglyceride content (7 days)
Protocol: After a 7 day treatment with dosings at days 0, 2 and 5, intratissue lipid accumulation was measured using Triglyceride-Glo™ Assay (Promega). In addition, metabolic activity of the treated Liver Microtissues (MTs) and cytotoxicity were assessed by measurement of ATP content at day 7 of treatment (CellTiter-Glo® 2.0 Cell Viability Assay, Promega) and LDH release between days 0-2, days 2-5 and days 5-7 (LDH-Glo™ Cytotoxicity Assay, Promega), respectively. Leftover supernatant collected on treatment days 2, 5 and 7 were stored frozen for further analysis. […] Experimental readout measurements comprised collection and freezing of supernatants for LDH measurement on days 2, 5 and 7. Measurement of LDH released into supernatant was analyzed using an LDH-Glo™ Cytotoxicity Assay (Promega). Measurement of ATP content in single MTs after 7 days of treatment with was analyzed using a Cell Titer Glo™ 2.0 Cell Viability Assay (Promega). Measurement of intratissue triglyceride (TG) content after 7 days of treatment was analyzed using a Triglyceride-Glo™ Assay (Promega). […] Total TG content in MTs at day 7 of treatment was measured with Triglyceride-Glo™ Assay (Promega), according to InSphero AG protocol. The amount of glycerol/MT [pmol/MT] was calculated using linear regression to a standard curve. […]

[4] = system: human precision cut liver slices; assay: Precision cut liver slice (PCLS) in vitro human NASH model, soluble outputs (collagen 1α1, IL-6, TIMP-1 ELISA)
Protocol: PCLSs were prepared from resected liver tissue and rested for 24 hours to allow the post-slicing stress period to elapse before experiments began. […] PCLS culture media, including lipids and compounds, was refreshed at 24 hrs intervals. […] PCLSs were prepared from an n=1 individual human liver. The human livers are normal margins of near-to-normal human liver obtained during a surgical resection. Tissue culture supernatant (n=3 or n=4 per group) were collected every 24 hrs and snap frozen for quantification of the soluble outputs described below. At harvest, n=2 PCLSs were harvested for a triglyceride assay, n=2 PCLSs were harvested for frozen sections (Oil Red O staining), n=2 PCLSs were formalin-fixed, paraffin embedded (FFPE) for immunohistochemistry, and n=2 PCLSs were snap frozen for RNA isolation (Table 4, Groups 1˜4 only).

SMILES: Cc1nc(-c2cc(C(=O)N3CCC(c4ccc(C#N)cc4)CC3)c(C)cc2C2CCC2)n[nH]1 [Compound 001-152, 4-(1-(4-Cyclobutyl-2-methyl-5-(5-methyl-4H-1,2,4-triazol-3-yl)benzoyl)piperidin-4-yl)benzonitrile]
- collagen production [1]: inhibits collagen production directly; also recorded: inhibits as effectively as positive control Alk5 inhibitor
- intratissue Triglyceride content (NASH-induced) [2]: reduced cellular triglycerides
- intratissue Triglyceride content [3]: reduces cellular triglycerides
- fibrosis marker collagen 1α1 in culture supernatant [4]: dose and time-dependent decrease
